The assay deals with female NOD mice. In words: Spontaneous autoimmune diabetes in non-obese diabetic (NOD) mouse model. In kind it is in vivo. The text has this:
Treatment of spontaneous autoimmune diabetes in non-obese diabetic (NOD) mouse model. The NOD model is used as an animal model for human type 1 diabetes. The NOD mouse strain spontaneously develops autoimmune (type 1) diabetes by a process that has similarities to human type 1 diabetes mellitus, e.g., immune-mediated selective destruction of the pancreatic islet 13-cells that produce insulin (M. A. Atkinson and N. K. Maclaren, New England J. Medicine, 331:1428-1436 1994). There is a higher incidence of diabetes (i.e., hyperglycemia, glucosuria, and hypoinsulinemia) in female vs. male NOD mice (80-90% vs. 10-20%, respectively). Disease incidence in this animal model is first observed at approximately 12 to 15 weeks of age with maximum incidence usually peaking 5 to 6 weeks later.
Methods. An oral formulation containing 17α-ethynylandrost-5-ene-3β,7β,17β-triol in 30% w/v β-cyclodextrin sulfobutyl ether sodium salt (Captisol®; CyDex, Inc., Overland Park, Kans.) was used. Six-week old female NOD mice (approximately 20-25 grams) were purchased from The Jackson Laboratories (Bar Harbor, Me.) and housed in a vivarium under pathogen-free conditions. The animals were acclimated for at least one week prior to initiation of oral dosing with 17α-ethynylandrost-5-ene-3β,7β,17β-triol. Animals were randomized into 5 per cage upon receipt and cages were subsequently randomized into dosing groups.
Female NOD mice were treated once daily with vehicle, 17α-ethynylandrost-5-ene-3β,7β,17β-triol (20 or 80 mg/kg in 100 μL, p.o.), or dexamethasone (0.25 mg/kg, 100 μL, i.p.) from 15 to 25 weeks of age (i.e., before the first incidence of diabetes; at the University of Catania), from 13 to 19 weeks of age (2 days after the first incidence of diabetes), or from 12 to 26 weeks of age (9 days after the first incidence of diabetes). Blood glucose was monitored using glucometers (ENCORE Glucometer, Bayer Corp., Elkhart, Ind.) at weekly intervals, beginning at 10 weeks of age. Mice with blood glucose levels 200 mg/dL on two consecutive occasions were considered diabetic. The percentage of animals with diabetes over the course of the experiment was monitored.
Histological assessment of insulitis and functional 13-cell content was assessed at the time of disease diagnosis or at the end of the 26-week study (i.e., disease-free mice). Pancreata (after CO2 euthanasia) were immediately isolated and placed in 10% buffered formalin at room temperature overnight, and then embedded in paraffin. After de-paraffinizing, pancreas samples were rehydrated and 5 μm sections were prepared and fixed on glass slides. Some sections were stained with hematoxylin and eosin (H&E) while others were stained with anti-insulin antibody as follows; prepared sections were immersed in Tris-Buffered Saline (TBS: 10 mM Tris buffer, pH 7.4, 0.15 M NaCl) containing 1% of bovine serum albumin (BSA) and 5% normal goat serum for 2 h at room temperature followed by incubation with 2 μg/mL rat anti-insulin IgG2a monoclonal antibody (MAB1417; R&D Systems, Minneapolis, Minn.) in TBS/1% BSA overnight at 4° C. in a humidified chamber. After washing with TBS/0.5 Tween-20, sections were covered with biotinylated anti-rat IgG secondary antibody (BD biosciences, 1:1,000) for 1 h at room temperature, followed by washing with TBS/Tween-20 and incubation with streptavidin-horseradish peroxidase for 30 min. Sections were then incubated with chromogen substrate, DAB (BD Biosciences), for 5 min and counterstained with hematoxylin. The degree of insulitis (leukocyte infiltration per islet; H&E) and functional 13-cell content per islet (insulin production) was scored using a scale of 0 to 3 in which 0=none, 1=few, 2=moderate, 3=high content of inflammatory cells or functional β-cells. Pancreata that were scored were obtained from a randomly-selected portion of mice from each cohort and scores were reported as the mean±SEM for each cohort.

Setting [1] is: dexamethasone 0.25 mg/kg i.p. once daily.
Setting [2] is: dexamethasone 0.25 mg/kg i.p. once daily, scale of 0 to 3.

`C[C@@H]1C[C@H]2[C@@H]3CCC4=CC(=O)C=C[C@]4(C)[C@@]3(F)[C@@H](O)C[C@]2(C)[C@@]1(O)C(=O)CO` [dexamethasone, reference compound]: under setting [1], the “Disease Incidence” value is listed as 0.20 ± 0.20 and the “No. Islets/pancreas (H&E)” value came out at 8.2 ± 6.3. Moreover, under setting [2], the “Insulitis Score/Islet (H&E)” value is reported as 2.0 ± 0.6 and the “β-Cell Score/Islet (Insulin)” value is 2.3 ± 0.3. The “first incidence of diabetes” value (week 19, once daily treatment from 15 to 25 weeks of age (vehicle 25%)) turned out to be 0%.

Source of the values: patent US20100227841A1, “Patient populations and treatment methods” (Harbor BioSciencs, Inc., priority 2008, published 2010).
